Experimental data: US11738001B2, “Pharmaceutical combinations and methods for the treatment of diabetes and associated disorders” (OTAGO INNOVATION LIMITED, priority 2017, dated 2023)
Blank lines part the entries; values can stand above or below the compound they belong to.

Key:
[1] = system: diet-induced obese (DIO) mice; assay: ipGTT after chronic metformin or pramlintide, alone or combined with the mix (Experiments 6-9); type: in vivo, C57BL/6 mice
Procedure: (§1) For all experiments, 12-14 weeks old male C57BL/6 mice were obtained from the University of Otago animal facility. All procedures were approved by the University of Otago Animal Ethics Committee. Mice were housed individually under a 12:12 h light/dark cycle and ambient temperature was 23° C. Animals had either access to low-fat diet (LFD, containing 10% fat; cat. no. D12450B; Research Diets) or high-fat diet (HFD, containing 60% fat; cat. No. D12492; Research Diets) for a duration of 4 weeks, and water ad libitum. For each experiment a new cohort of animals was employed.
Separate cohorts of mice were treated with the respective control injections. Mice were fasted for 16 h and an ipGTT was performed as described.
After chronic treatment with the well described antidiabetic drugs mice were fasted for 16 h and received the mix acutely (0.33 mg/kg; containing 5% ethanol). 60 minutes later we carried out an ipGTT as described previously.
(§2) Data were analysed by one-way ANOVA or repeated measures ANOVA followed by multiple comparison test, as appropriate, using GraphPad Prism 5 software (Graphpad Software, Inc.). The results are presented as means ±SEM, and differences were considered significant if p≤0.05.

[2] = system: diet-induced obese (DIO) mice; assay: intraperitoneal glucose tolerance test (ipGTT), acute oral treatment (Experiments 1-5); type: in vivo, C57BL/6 mice; conditions: HFD 4 weeks
Procedure: as §1
For all experiments, the formulations were prepared by forming an ethanol solution of the selected active ingredient(s), i.e. B, I or S individually, the mix or the extract, and then diluting to the desired concentration with 0.9 wt % NaCl aqueous solution.
To investigate whether the compounds either individually, a mixture of all three compounds (B, S and I; hereinafter referred to as “mix”) or the total extract of yellow Dahlia ‘Ruskin Diane’ petals acutely affect glucose homeostasis, intraperitoneal glucose tolerance tests (ipGTTs) were performed in diet-induced obese (DIO) mice as a model to mimic human prediabetes and impairments in glucose metabolism. Individual compounds, the mix or the total extract were dissolved in 0.9% NaCl containing 5% ethanol and administered orally. Mice (n=7-8/group) were fed either a high fat diet (HFD) or respective low fat diet (LFD) for 4 weeks, fasted for 16 h and received the different compounds/combinations or vehicle (0.9% NaCl containing 5% ethanol) by oral gavage. For example, for administration to a 50 g mouse, an oral gavage having a volume of 500 μl was prepared, the oral gavage contained 500 μg of extract or 50 μg of compound(s). The volume of the gavage administered was adjusted based on the weight of the mouse subject. Glucose (1.5 g/kg body weight; dissolved in 0.9% NaCl) was injected intraperitoneally (i.p.) 60 minutes after oral gavage treatment, and an ipGTT was performed. Blood glucose levels were measured using a commercially available glucometer (Accu-Check Performa; Roche) whilst truncating the tip of the tail with a fresh scalpel blade. For statistical validation, the area under the curve (AUC) was calculated.
These experiments establish dose responses of the individual compounds using different concentrations (20, 10, 3.3, 1, 0.33 mg/kg body weight), the mix (20, 10, 3.3, 1, 0.33 mg/kg body weight) or the extract (50, 20, 10, 3.3, 1 mg/kg) to determine the highest non-effective dose to allow for testing of synergism in combination with commercially available diabetes drugs in subsequent experiments. Mice were fed either LFD or HFD 4 weeks (Experiments 4 and 5). After mice were food deprived for 16 hours, an pGTT was carried out as previously described.
as §2

[3] = stability of extract and butein in vitro (RPLC); type: physicochemical
Procedure: Experiments were carried out on dissolving/dispersing Dahlia ‘Ruskin Diane’ extract into aqueous buffer. […] To confirm the cause of instability of the buffered extract, the stability of butein was assessed in aqueous buffer at pH7 (butein was stable at pH4). […] By contrast, butein was stable when diluted into EtOH and stored under ambient conditions (FIG. 16). […] The conversion of butein to sulfuretin is an oxidative cyclisation.

solubility = type: physicochemical; conditions: pH7 buffer solution
[4] = system: phosphorylation of AKT (pAKT); assay: central insulin signalling: pAKT immunoreactive cells in the arcuate nucleus (Experiment 10); type: in vivo, C57BL/6 mice; conditions: insulin 1 mg/kg 15 min before perfusion; LFD and HFD fed mice vs vehicle-injected
Procedure: To identify a mode of action of how the compounds, formulations and the extract affect glucose homeostasis, effects on central insulin signalling by measuring phosphorylation of AKT (pAKT) were investigated. AKT is the main target of insulin in the arcuate nucleus of the hypothalamus. To assess the degree of insulin action in the hypothalamus, phosphorylated AKT positive cells were counted. Mice were fed LFD or HFD for 4 weeks, fasted for 16 h and bodyweight matched. Sixty minutes before transcardial perfusion they received B (10 mg/kg), I (10 mg/kg), S (10 mg/kg), the mix (3.3 mg/kg of each compound), the extract (10 mg/kg) or vehicle (0.9% NaCl containing 5% ethanol) by oral gavage. Additionally, mice received an insulin (1 mg/kg) or vehicle injection 15 minutes before transcardial perfusion. Immunohistochemistry was carried out on mouse brain coronal cryosections as described previously in Benzler J, et al. Diabetes. […]
To investigate the molecular mechanisms and to identify the molecular targets of the mix and the extract, mice were fed either a HFD or LFD for 4 weeks followed by treatment with the mix (3.3 mg/kg body weight each) or the extract (10 mg/kg) acutely by oral gavage. […] The target protein of the insulin signalling pathway, pAKT, was visualized by immunohistochemistry and quantified by counting pAKT immunoreactive cells.

[5] = Experiment 1: 10 mg/kg (mix: 3.3 mg/kg of each compound) oral gavage 1 h before ipGTT, vs HFD control
[6] = Experiment 3: 3.3 mg/kg (each) orally 1 h before ipGTT

Compound: CN(C)C(=N)N=C(N)N [metformin]
glucose tolerance in ipGTT ([1]; Experiment 6: 300 mg/kg/d oral, twice daily, last 7 days, p=0.004 vs HFD control): improved glucose tolerance
highest dose that did not improve glucose tolerance ([1]; Experiment 6: oral gavage twice daily for last 7 days, HFD 4 weeks): 100 mg/kg body weight

stability ([3]; aqueous buffer pH4): stable
rate of conversion to sulfuretin ([3]; attempts to exclude oxygen): slowed the reaction
stability ([3]; diluted into EtOH and stored under ambient conditions): stable
rate of conversion to sulfuretin ([3]; excluding light and adding a radical inhibitor): no effects on reaction rate
solubility (solubility): limited solubility
Compound: O=C(/C=C/c1ccc(O)c(O)c1)c1ccc(O)cc1O [B, Butein]
glucose tolerance in ipGTT [2, 5]: did not improve glucose tolerance
glucose tolerance in ipGTT ([2]; Experiment 2: 3.3 mg/kg of each compound orally 1 h before ipGTT, vs vehicle treated HFD mice): no effect on glucose tolerance
stability ([3]; EtOH or DMSO solutions diluted into aqueous buffer at pH7, room temperature): linear (zero order kinetics) conversion of butein to sulfuretin over time

Compound: CC[C@H](C)[C@H](NC(=O)[C@@H]1CCCN1C(=O)CNC(=O)[C@H](Cc1ccccc1)NC(=O)[C@H](CC(N)=O)NC(=O)[C@H](CC(N)=O)NC(=O)[C@H](CO)NC(=O)[C@H](CO)NC(=O)[C@H](Cc1c[nH]cn1)NC(=O)[C@@H](NC(=O)[C@H](CC(C)C)NC(=O)[C@H](Cc1ccccc1)NC(=O)[C@H](CC(N)=O)NC(=O)[C@H](C)NC(=O)[C@H](CC(C)C)NC(=O)[C@H](CCCNC(=N)N)NC(=O)[C@H](CCC(N)=O)NC(=O)[C@@H](NC(=O)[C@H](C)NC(=O)[C@@H]1CSSC[C@H](NC(=O)[C@@H](N)CCCCN)C(=O)N[C@@H](CC(N)=O)C(=O)N[C@@H]([C@@H](C)O)C(=O)N[C@@H](C)C(=O)N[C@@H]([C@@H](C)O)C(=O)N1)[C@@H](C)O)C(C)C)C(=O)N[C@@H](CC(C)C)C(=O)N1CCC[C@H]1C(=O)N1CCC[C@H]1C(=O)N[C@H](C(=O)N[C@@H](CC(N)=O)C(=O)N[C@H](C(=O)NCC(=O)N[C@@H](CO)C(=O)N[C@@H](CC(N)=O)C(=O)N[C@H](C(=O)N[C@@H](Cc1ccc(O)cc1)C(N)=O)[C@@H](C)O)C(C)C)[C@@H](C)O [pramlintide]
glucose tolerance in ipGTT ([1]; Experiment 8: 1000 μg/kg/d s.c. twice daily for 5 days, p=0.0497 vs vehicle HFD): improved glucose tolerance
highest non-effective dose ([1]; Experiment 8: s.c. twice daily for last 5 days, HFD 4 weeks): 200 μg/kg/d body weight
glucose tolerance in ipGTT ([1]; Experiment 8: the other concentrations (200, 40, 8, 1.6 μg/kg/d s.c.)): no significant effect on glucose homeostasis
glucose tolerance in ipGTT ([1]; Experiment 9: pramlintide 200 μg/kg/d s.c. last 5 days and/or mix 0.33 mg/kg oral 1 h before ipGTT, vs HFD vehicle): neither pramlintide alone at 200 μg/kg/d body weight (FIG. 9A) nor the mix at 0.33 mg/kg body weight (FIG. 9B) was able to improve glucose tolerance

Compound: O=C(/C=C/c1ccc(O)cc1)c1ccc(O)cc1O [I, Isoliquiritigenin]
glucose tolerance in ipGTT [2, 5]: trend towards an improved glucose homeostasis
glucose tolerance in ipGTT [2, 6]: improved glucose tolerance
stability (concentration over time) [3]: decreased in concentration much more slowly

Compound: Insulin: insulin (1 mg/kg) injected to activate the insulin signalling pathway
pAKT positive cells in the arcuate nucleus [4]: markedly increased pAKT positive cells

Compound: O=C1/C(=C/c2ccc(O)c(O)c2)Oc2cc(O)ccc21 [S, Sulfuretin]
glucose tolerance in ipGTT [2, 5]: significantly improve glucose tolerance
glucose tolerance in ipGTT [2, 6]: improved glucose tolerance
